# Test results: patent US6825230B2, “Spiro and dispiro 1,2,4-trixolane antimalarials” (Medicines for Malaria Venture MMV, priority 2002, dated 2004)
# Where two headings read alike, the source gives them in different places.
# How the values were obtained:
# [1] = test system: Schistosoma mansoni 21-day-old schistosomules; test: Effect on 21-day-old schistosomules in infected mice; format: in vivo; settings: po, 200 mg/kg, 504 h
# Procedure: Mice were infected with 100 Schistosoma mansoni cercariae on day 21 post-treatment. Each group was treated per os with trioxolanes at a single dose of 200 mg/kg. […] All groups were killed 4 weeks after treatment and the liver and intestine were removed and separated. The liver and intestine were compressed and alive male and female worms could be seen and counted. The effect of the compounds was evaluated by mean total and female worm burden.
# [2] = test system: P. berghei ANKA strain; test: Prophylactic activity, single 100 mg/kg po at various times before infection; format: in vivo, Plasmodium berghei; settings: for Prophylactic Activity (%) 24 h: single 100 mg/kg po 24 h before infection; for Prophylactic Activity (%) 0 h: single 100 mg/kg po at 0 h; for Prophylactic Activity (%) 48 h: single 100 mg/kg po 48 h before infection
# Procedure: (§1) Moro NMRI male mice (Fu Albino specific pathogen free) weighing 18±2 g were infected intravenously (i.v.) with 2×10^7 P. berghei ANKA strain-infected erythrocytes from donor mice on day 0 of the experiment. From donor mice with circa 30% parasitemia, heparinized blood was taken and diluted in physiological saline to 10^8 parasitized erythrocytes per ml. An aliquot (0.2 ml) of this suspension was injected i.v. into experimental and control groups of mice. […] Throughout the experiments, mice were kept in groups of three or five animals in Makrolon type II cages in an air-conditioned animal room at 22 to 23° C.
# Prophylactic activities of the compounds were compared after administering po single dose of 100 mg/kg to different groups of five animals at various times before infection. All groups including an untreated control group, were then infected at the same time. Parasitemia was determined for each animal on day 3 post-infection, and percent of reduction of the level of parasitemia compared to levels for animals given no drug is determined.
# [3] = test system: chloroquine-resistant K1 strain of P. falciparum; test: In vitro antimalarial semiautomated microdilution assay ([3H]-hypoxanthine incorporation), K1 strain; format: cell-based, Plasmodium falciparum; settings: Plasmodium falciparum
# In short: (§2)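 IC50 comes from Logit regression of [3H]-hypoxanthine incorporation data. Intraerythrocytic P. falciparum taken from asynchronous stock cultures is exposed to OZ compounds in a semiautomated microdilution format.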
# [4] = test system: P. berghei ANKA strain; test: Divided 3x3 mg/kg and 3x1 mg/kg po doses in infected mice; format: in vivo, Plasmodium berghei; settings: for Cures: 3 mg/kg, 720 h
# In short: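 Male NMRI mice were infected i.v. with 2×10^7 P. berghei-parasitized erythrocytes on day 0, then dosed orally in SSV vehicle on days 1, 2 and 3 post-infection.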
# [5] = test system: P. berghei ANKA strain; test: Onset of action and recrudescence experiment, single 100 mg/kg po; format: in vivo, Plasmodium berghei; settings: single 100 mg/kg po (SSV) on day +3 post-infection; recrudescence = >5% parasitemia; followed up to 60 days; groups of five
# Procedure: The onset of drug action was determined after a single fixed dose of 100 mg/kg (SSV vehicle) po to groups of five animals on day +3 post-infection (day 0).
# as §1
# [6] = test system: Schistosoma mansoni adult worms (49-day-old); test: Effect on adult schistosomes (49-day-old) in infected mice; format: in vivo
# Procedure: Mice were infected with 100 Schistosoma mansoni cercariae on day 49 post-treatment. Each group was treated per os with OZ compounds at single doses of 200, 400, and 600 mg/kg. Untreated mice served as the control. All groups were killed 4 weeks after treatment and the liver and intestine were removed and separated. The liver and intestine were compressed and alive male and female worms could be seen and counted.
# [7] = test system: chloroquine-sensitive NF54 strain of P. falciparum; test: In vitro antimalarial semiautomated microdilution assay ([3H]-hypoxanthine incorporation), NF54 strain; format: cell-based, Plasmodium falciparum; settings: Plasmodium falciparum
# In short: as §2
# [8] = test system: ANKA strain of Plasmodium berghei; test: Single dose ED50/ED90/ED99 determination in infected mice; format: in vivo; settings: for ED50: Plasmodium berghei
# In short: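 Moro SPF or NMRI mice (three per group) infected with P. berghei ANKA were dosed once on day 1 post-infection in SSV (0.5% CMC, 0.5% benzyl alcohol, 0.4% Tween 80, 0.9% NaCl). Parasitemia reduction was scored on day 3; ED values (mg/kg) came from nonlinear fitting.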
# [9] = test system: Schistosoma japonicum; test: Effect in mice infected with Schistosoma japonicum; format: in vivo; settings: age of worm 35 days, 400 mg/kg x 1
# [10] = test system: ANKA strain of P. berghei; test: Single dose STI in vivo screen in infected mice; set-up: species or system Plasmodium berghei; settings: for Survival (days) 3 mg/kg SSV po / Activity (%) 3 mg/kg SSV po: single 3 mg/kg po in SSV; for Activity (%) 3 mg/kg SSV po / Activity (%) 10 mg/kg SSV po: percent reduction in parasitemia on day 3; for Survival (days) 10 mg/kg SSV po: single 10 mg/kg po in SSV, untreated 6-7 days; for Activity (%) 10 mg/kg SSV po: single 10 mg/kg po in standard suspending vehicle (SSV) on day 1 post-infection
# [11] = Pharmacokinetics in dogs (IV and oral dosing); settings: in vivo, dog; for bioavailability: some values marked (V), not defined
# Text: (§3) Artesunate is listed as a reference compound.
# [12] = Pharmacokinetics in rats (IV and oral dosing); settings: in vivo, rat
# Text: as §3
# [13] = test system: P. berghei ANKA strain; test: Divided 3x10 mg/kg vs single 1x30 mg/kg po dose in infected mice; format: in vivo, Plasmodium berghei; settings: for Survival (days) 3 × 10 mg/kg p.o. SSV / Activity (%) 3 × 10 mg/kg p.o. SSV: 10 mg/kg po on days 1, 2, 3 post-infection; for Activity (%) 3 × 10 mg/kg p.o. SSV / Activity (%) 1 × 30 mg/kg p.o. SSV: parasitemia reduction on day 4; for Survival (days) 1 × 30 mg/kg p.o. SSV / Activity (%) 1 × 30 mg/kg p.o. SSV: single 30 mg/kg po on day 1 post-infection; for Cures 1 × 30 mg/kg p.o. SSV: single 30 mg/kg po, cure = survival to day 30 post-infection
# [14] = parasitemia reduction on day 3 post-infection
# [15] = 3 × 1 mg/kg p.o. SSV on days 1, 2, 3 post-infection
# [16] = 3 × 3 mg/kg p.o. SSV on days 1, 2, 3 post-infection
# [17] = 3 × 3 mg/kg p.o. SSV on days 1, 2, 3 post-infection, percent reduction of parasitemia vs control on day 4
# [18] = single dose po in SSV on day 1 post-infection, parasitemia day 3, nonlinear fitting, read-out: ED50
# [19] = single dose po in SSV on day 1 post-infection, parasitemia day 3, nonlinear fitting
# [20] = oral 10 mg/kg, read-out: Dog Oral Bioavailability 10 mg/kg
# [21] = oral 25 mg/kg, read-out: Dog Oral Bioavailability 25 mg/kg
# [22] = single 400 mg/kg per os, 49-day-old adults, total worm reduction rate
# [23] = single 400 mg/kg per os, percentage of dead worm in the liver
Structure (SMILES),"Prophylactic Activity (%) 24 h [2, 14] [%]","Prophylactic Activity (%) 0 h [2, 14] [%]","Survival [4, 15] [days]","Survival [4, 16] [days]","Activity (%) [4, 17] [%]","Activity (%) ([4]; po, 1 mg/kg, 96 h)",Cures ([4]; po),Time of Recrudescence [5] [days],"ED50 [8, 18] [mg/kg]",ED90 ([8]; po) [mg/kg],"ED99 [8, 19] [mg/kg]",Survival (days) 3 mg/kg SSV po [10] [days],Activity (%) 3 mg/kg SSV po [10] [%],Survival (days) 10 mg/kg SSV po [10] [days],Activity (%) 10 mg/kg SSV po [10] [%],"Prophylactic Activity (%) 48 h [2, 14] [%]",half-life ([11]; IV 10 mg/kg) [min],half-life ([11]; oral 10 mg/kg) [min],"bioavailability [11, 20] [%]","bioavailability [11, 21] [%]",further results
"CO[C@H]1O[C@@H]2O[C@@]3(C)CC[C@H]4[C@H](C)CC[C@@H]([C@H]1C)[C@@]24OO3 [AM, artemether, reference compound]",0,100,7.2,9.4,86,51,0\5,12.0,2.2,4.2,7.1,8.7,79,9.4,99.75,–,–,–,–,–,"% reduction of schistosomule growth at day 21 after per os application of 200 mg/kg, FWR (%) [1]: (n2) 78%; % reduction of schistosomule growth at day 21 after per os application of 200 mg/kg, TWR (%) [1]: (n2) 81%; IC50 ([3]; chloroquine-resistant K1 strain, 72 h incubation, read-out: IC50 (ng/ml) K1): 0.45 ng/mL; % reduction of adult worms growth at day 49 after per os application of 400 mg/kg, TWR (%) ([6]; po, 400 mg/kg, 1176 h): 53%; Adult worms day 49, per os 400 mg/kg, DEAD WORM (%) ([6]; po, 400 mg/kg, 1176 h): 29%; IC50 ([7]; chloroquine-sensitive NF54 strain, 72 h incubation, read-out: IC50 (ng/ml) NF54): 0.36 ng/mL; Mice without female worm [9]: 0/7; MFWB (mean female worm burden) x ± SD ([9]; control 11.6 ± 2.4): 3.4 ± 1.6; MTWB (mean total worm burden) x ± SD ([9]; control 26.6 ± 4.2): 10.1 ± 4.4"
CC(C)(N)CNC(=O)C[C@H]1CC[C@]2(CC1)OO[C@]1(O2)C2CC3CC(C2)CC1C3 [OZ277],25,100,9.4,14,100,83,0\5,13.0,0.78,2.0,4.4,9.6,–,9.3,–,7,95,148,87.9,96.1,"Prophylactic Activity (%) 72 h ([2]; po, 100 mg/kg): 9%; half-life ([12]; IV 10 mg/kg): 77.2 min; half-life ([12]; oral 25 mg/kg): 90.5 min; bioavailability ([12]; po, 10 mg/kg): 36.9%; bioavailability ([12]; po, 25 mg/kg): 44.1%; Survival (days) 3 × 10 mg/kg p.o. SSV [13]: 27.6 days; Activity (%) 3 × 10 mg/kg p.o. SSV [13]: 100%; Survival (days) 1 × 30 mg/kg p.o. SSV [13]: 10.4 days; Activity (%) 1 × 30 mg/kg p.o. SSV [13]: 99.92%; Cures 1 × 30 mg/kg p.o. SSV [13]: 0/5; % reduction of adult worms growth at day 49 after per os application of 400 mg/kg, TWR (%) [6, 22]: 0/0%; Adult worms day 49, per os 400 mg/kg, DEAD WORM (%) [6, 23]: 0/0%"
Cc1ccc(S(=O)(=O)O)cc1.O=C(C[C@H]1CC[C@]2(CC1)OO[C@]1(O2)C2CC3CC(C2)CC1C3)N1CCNCC1 [OZ279],97,100,8.8,14.8,100,–,–,15.0,–,–,3.9,–,99.42,9.3,99.98,27,178,195,32.8,55.7,"Prophylactic Activity (%) 72 h ([2]; single 100 mg/kg po 72 h before infection, parasitemia reduction on day 3 post-infection): 14%; half-life ([12]; IV 10 mg/kg): 100 min; bioavailability ([12]; oral 10 mg/kg, read-out: Rat Oral Bioavailability 10 mg/kg): 37.2%; half-life ([12]; oral 25 mg/kg): 167 min; bioavailability ([12]; oral 25 mg/kg, read-out: Rat Oral Bioavailability 25 mg/kg): 71.1%; Survival (days) 3 × 10 mg/kg p.o. SSV [13]: 25.4 days; Activity (%) 3 × 10 mg/kg p.o. SSV [13]: 100%; Survival (days) 1 × 30 mg/kg p.o. SSV [13]: 14.8 days; Activity (%) 1 × 30 mg/kg p.o. SSV [13]: 99.95%; Cures 1 × 30 mg/kg p.o. SSV [13]: 0/5; IC50 ([3]; K1, 72 h, read-out: IC50 (ng/ml) K1, chloroquine-resistant K1 strain, 72 h incubation): 0.21 ng/mL; Activity (%) ([4]; 3 × 1 mg/kg p.o. SSV on days 1, 2, 3 post-infection, percent reduction of parasitemia vs control on day 4): 83%; % reduction of adult worms growth at day 49 after per os application of 400 mg/kg, TWR (%) [6, 22]: 0%; Adult worms day 49, per os 400 mg/kg, DEAD WORM (%) [6, 23]: 12%; IC50 ([7]; NF54, 72 h, read-out: IC50 (ng/ml) NF54, chloroquine-sensitive NF54 strain, 72 h incubation): 0.24 ng/mL; ED50 ([8]; po, single dose po in SSV on day 1 post-infection, parasitemia day 3, nonlinear fitting): 0.63 mg/kg; ED90 [8, 19]: 1.8 mg/kg"
